The source of these data is US7563781B2, “Triazolopyrimidine derivatives” (Janssen Pharmaceutica NV, priority 2006, dated 2009).

SMILES strings stand for the structures.

Experiment [1] addresses T1, Focal Adhesion Kinase (full-length Flag-tagged human FAK) (Homo sapiens, UniProt Q05397).
T1 construct: a purified recombinant full-length Flag-tagged human FAK protein; Flag; made in house; host or cells: baculovirus infected insect cells
Description: in vitro FAK ELISA kinase assay. It is filed as biochemical. Particulars: compound 10 uM; ATP 2 uM; read-out: FAK % Inhib ave: 10 uM. In outline:
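Plate-coated GST fusion of the 73-residue region around Tyr397 phosphorylated by full-length Flag-tagged human FAK from baculovirus-infected insect cells, with 2 μM ATP in Mg/Mn HEPES pH 7.5, 1 h at 30 °C. Phosphotyrosine detected by HRP-anti-pTyr ELISA with TMB read-out. Compounds screened at 10 μM or titrated from 50 μM in half-log steps for IC50, BSA-substrate background subtracted.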
Background: ELISA stands for enzyme-linked immunosorbent assay.

For experiment [2], the target named is T2, CAK complex (human Cdk7, human Cyclin H, MAT-1) (Homo sapiens, UniProt P50613).
T2 construct: made in house; host or cells: SF-900 insect cells co-infected with Flag-Cdk7 and Bab-Cyclin H baculoviruses
T2 sequence (P50613 with tags, fused parts or gaps): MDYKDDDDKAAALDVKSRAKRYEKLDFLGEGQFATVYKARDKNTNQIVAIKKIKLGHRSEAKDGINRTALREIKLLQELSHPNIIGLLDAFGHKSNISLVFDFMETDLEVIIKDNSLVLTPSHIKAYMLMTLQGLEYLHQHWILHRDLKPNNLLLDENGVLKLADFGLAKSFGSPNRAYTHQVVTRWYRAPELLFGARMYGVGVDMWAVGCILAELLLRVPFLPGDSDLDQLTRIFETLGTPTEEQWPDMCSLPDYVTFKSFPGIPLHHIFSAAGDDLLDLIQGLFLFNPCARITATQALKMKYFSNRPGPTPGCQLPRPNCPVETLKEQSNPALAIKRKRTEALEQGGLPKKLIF
T2 sequence (as listed by the source partner): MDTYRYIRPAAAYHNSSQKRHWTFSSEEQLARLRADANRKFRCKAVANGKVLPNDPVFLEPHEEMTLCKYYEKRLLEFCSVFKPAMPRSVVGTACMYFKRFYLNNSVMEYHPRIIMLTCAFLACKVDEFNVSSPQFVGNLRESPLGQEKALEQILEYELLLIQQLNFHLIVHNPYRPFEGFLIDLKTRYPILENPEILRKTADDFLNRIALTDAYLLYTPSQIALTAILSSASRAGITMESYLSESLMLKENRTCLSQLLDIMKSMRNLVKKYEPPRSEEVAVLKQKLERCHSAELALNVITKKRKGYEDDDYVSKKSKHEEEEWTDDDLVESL
Description: in vitro time-resolved-fluorescence assay for the CAK kinase activity. The experiment is classed as biochemical. The conditions noted are these: compound 20 uM; read-out: CAK % inhib; 20 uM. In a few lines: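 Kinase activity of the human CAK complex (Flag-tagged Cdk7, Cyclin H, MAT-1), purified from co-infected SF-900 insect cells by Flag-M2 immunoaffinity, was measured by time-resolved fluorescence. In black glutathione-coated 96-well plates, 500 ng GST-CTD substrate with 22 uM ATP was mixed with compound in 30% DMSO/25 mM Hepes and 250 ng CAK. Plates were incubated 20 minutes at 30° C, then stopped with EDTA, bound overnight and washed. A Europium-labeled antibody detected serine-phosphorylated CTD.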

T1 sequence (Q05397 whole entry): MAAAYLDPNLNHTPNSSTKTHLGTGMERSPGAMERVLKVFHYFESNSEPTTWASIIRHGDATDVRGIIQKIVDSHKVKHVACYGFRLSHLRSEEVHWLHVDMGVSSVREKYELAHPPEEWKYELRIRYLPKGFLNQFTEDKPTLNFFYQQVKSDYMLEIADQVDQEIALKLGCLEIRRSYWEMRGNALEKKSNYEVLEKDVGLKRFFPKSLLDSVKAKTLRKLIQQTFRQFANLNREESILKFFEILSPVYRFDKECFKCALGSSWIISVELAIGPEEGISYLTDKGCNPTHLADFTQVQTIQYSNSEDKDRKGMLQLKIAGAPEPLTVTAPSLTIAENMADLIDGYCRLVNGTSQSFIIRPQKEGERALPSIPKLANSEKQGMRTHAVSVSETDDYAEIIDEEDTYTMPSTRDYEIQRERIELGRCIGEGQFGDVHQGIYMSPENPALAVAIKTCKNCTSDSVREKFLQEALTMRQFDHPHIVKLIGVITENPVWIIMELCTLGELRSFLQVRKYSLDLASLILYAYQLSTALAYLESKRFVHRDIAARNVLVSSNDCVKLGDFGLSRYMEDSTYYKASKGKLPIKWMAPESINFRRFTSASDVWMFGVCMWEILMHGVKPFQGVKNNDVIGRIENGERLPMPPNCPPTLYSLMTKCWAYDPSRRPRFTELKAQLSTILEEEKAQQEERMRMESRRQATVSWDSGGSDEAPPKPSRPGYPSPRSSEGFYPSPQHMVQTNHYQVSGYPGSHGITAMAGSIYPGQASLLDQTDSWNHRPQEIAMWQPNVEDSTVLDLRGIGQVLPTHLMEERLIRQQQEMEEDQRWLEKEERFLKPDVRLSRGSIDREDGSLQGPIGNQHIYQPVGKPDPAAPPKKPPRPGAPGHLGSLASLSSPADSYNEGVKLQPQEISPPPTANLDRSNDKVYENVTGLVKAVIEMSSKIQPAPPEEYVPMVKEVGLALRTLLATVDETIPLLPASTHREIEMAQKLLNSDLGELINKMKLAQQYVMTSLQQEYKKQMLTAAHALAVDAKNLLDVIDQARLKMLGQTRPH

`c1ccc(-c2cccc(Nc3ncc4nnn(-c5ccc6c(c5)CCC6)c4n3)c2)cc1` [Compound 23, Biphenyl-3-yl-(3-indan-5-yl-3H-[1,2,3]triazolo[4,5-d]pyrimidin-5-yl)-amine]: in experiment [1], the inhibition at 10 µM was determined as 13%. Besides, the inhibition at 20 µM in experiment [2] is 43.5%.
Regarding `CCCCNS(=O)(=O)c1cccc(Nc2ncc3nnn(-c4ccc(N5CCN(Cc6ccccc6)CC5)cc4)c3n2)c1` [Compound 54, 3-{3-[4-(4-Benzyl-piperazin-1-yl)-phenyl]-3H-[1,2,3]triazolo[4,5-d]pyrimidin-5-ylamino}-N-butyl-benzene-sulfonamide], the inhibition at 10 µM in experiment [1] amounted to 15.2%. Further, the inhibition at 20 µM in experiment [2] was determined as 20.5%.
With `CN(C)CC(O)COc1ccc(Nc2ncc3nnn(-c4ccc(C5CCCCC5)cc4)c3n2)cc1` (centres unmarked) [Compound 15, 1-{4-[3-(4-Cyclohexyl-phenyl)-3H-[1,2,3]triazolo[4,5-d]pyrimidin-5-ylamino]-phenoxy}-3-dimethylamino-propan-2-ol], the inhibition at 10 µM in experiment [1] came to 80.5%. Further, the inhibition at 20 µM in experiment [2] came to 76%.
Regarding `CNC(=O)c1cccc(-n2nnc3cnc(Nc4cccc(-c5ccccc5)c4)nc32)c1` [Compound 41, 3-[5-(Biphenyl-3-ylamino)-[1,2,3]triazolo[4,5-d]pyrimidin-3-yl]-N-methyl-benzamide], the inhibition at 10 µM in experiment [1] was -3.2%. Further, the inhibition at 20 µM in experiment [2] is 5.6%.
Regarding `O=C(NCCN1CCOCC1)c1ccc(Nc2ncc3nnn(-c4ccc5c(c4)CCC5)c3n2)cc1` [Compound 76, 4-(3-Indan-5-yl-3H-[1,2,3]triazolo[4,5-d]pyrimidin-5-ylamino)-N-(2-morpholin-4-yl-ethyl)-benzamide], the inhibition at 10 µM in experiment [1] turned out to be 34.7%. The inhibition at 20 µM in experiment [2] worked out at 10.2%.
In the case of `CCOC(=O)/C=C/c1ccc(Nc2ncc3nnn(-c4ccc5c(c4)CCC5)c3n2)cc1` [Compound 28, 3-[4-(3-Indan-5-yl-3H-[1,2,3]triazolo[4,5-d]pyrimidin-5-ylamino)-phenyl]-acrylic acid ethyl ester], the inhibition at 10 µM in experiment [1] is 16%. Besides, in experiment [2], the inhibition at 20 µM came out at 54.7%.
For `CN(C)CC(O)COc1ccc(Nc2ncc3nnn(C4CCCC(C(=O)O)C4)c3n2)cc1` (centres unmarked) [Compound 31, 3-{5-[4-(3-Dimethylamino-2-hydroxy-propoxy)-phenylamino]-[1,2,3]triazolo[4,5-d]pyrimidin-3-yl}-cyclohexanecar-boxylic acid], in experiment [1], the inhibition at 10 µM is 21.4%. The inhibition at 20 µM in experiment [2] turned out to be 32.9%.
Turning to `CCOC(=O)Cc1ccc(Nc2ncc3nnn(-c4ccc5c(c4)CCC5)c3n2)cc1` [Compound 25, [4-(3-Indan-5-yl-3H-[1,2,3]triazolo[4,5-d]pyrimidin-5-ylamino)-phenyl]-acetic acid ethyl ester], in experiment [1], the inhibition at 10 µM is 30%. Besides, the inhibition at 20 µM in experiment [2] came to 21%.
On to `CCOC(=O)N1CCC(n2nnc3cnc(Nc4cccc(-c5nnn[nH]5)c4)nc32)CC1` [Compound 63, 4-{5-[3-(1H-Tetrazol-5-yl)-phenylamino]-[1,2,3]triazolo[4,5-d]pyrimidin-3-yl}-piperidine-1-carboxylic acid ethyl ester], for which, in experiment [1], the inhibition at 10 µM was found to be 59.8%. The inhibition at 20 µM in experiment [2] amounted to 39.3%.
As to `CCN(CC)CCNC(=O)c1ccc(-n2nnc3cnc(Nc4ccc5c(c4)CCC5)nc32)cc1` [Compound 19, N-(2-Diethylamino-ethyl)-4-[5-(indan-5-ylamino)-[1,2,3]triazolo[4,5-d]pyrimidin-3-yl]-benzamide], the inhibition at 10 µM in experiment [1] is 68.8%. Further, the inhibition at 20 µM in experiment [2] is -63.7%.
Turning to `CCCCNS(=O)(=O)c1cccc(Nc2ncc3nnn(-c4cccc(S(=O)(=O)NCCCC)c4)c3n2)c1` [Compound 48], the inhibition at 10 µM in experiment [1] is 7.44%. Further, the inhibition at 20 µM in experiment [2] was -37.4%.
As to `c1cc(Nc2ncc3nnn(C4CCCC4)c3n2)cc(-c2nnn[nH]2)c1` [Compound 67, (3-Cyclopentyl-3H-[1,2,3]triazolo[4,5-d]pyrimidin-5-yl)-[3-(1H-tetrazol-5-yl)-phenyl]-amine], the inhibition at 10 µM in experiment [1] was 15.4%. In addition, the inhibition at 20 µM in experiment [2] came to 44.2%.
For `CCN(CC)CCNC(=O)c1ccc(Nc2ncc3nnn(Cc4ccccc4)c3n2)cc1` [Compound 58, 4-(3-Benzyl-3H-[1,2,3]triazolo[4,5-d]pyrimidin-5-ylamino)-N-(2-diethylamino-ethyl)-benzamide] the same measures were 59% and 58%.
The matching figures for `CNC(=O)c1cccc(Nc2ncc3nnn(-c4ccc5c(c4)CCC5)c3n2)c1` [Compound 27, 3-(3-Indan-5-yl-3H-[1,2,3]triazolo[4,5-d]pyrimidin-5-ylamino)-N-methyl-benzamide]: 74.4% and 21.4%.
For `CCN(CC)CCNC(=O)c1ccc(Nc2ncc3nnn(C4CCc5ccccc54)c3n2)cc1` (centres unmarked) [Compound 61, N-(2-Diethylamino-ethyl)-4-(3-indan-1-yl-3H-[1,2,3]triazolo[4,5-d]pyrimidin-5-ylamino)-benzamide], in experiment [1], the inhibition at 10 µM came out at 85.5%. In experiment [2], the inhibition at 20 µM stood at 79.4%.
For `c1cc(Nc2ncc3nnn(-c4cccc(-c5cnco5)c4)c3n2)cc(-c2cnco2)c1` [Compound 85, (3-Oxazol-5-yl-phenyl)-[3-(3-oxazol-5-yl-phenyl)-3H-[1,2,3]triazolo[4,5-d]pyrimidin-5-yl]-amine], the inhibition at 10 µM in experiment [1] worked out at 47.8%. Besides, in experiment [2], the inhibition at 20 µM turned out to be 9.49%.
On to `CCOC(=O)N1CCC(n2nnc3cnc(Nc4ccc(C(=O)NCCN(CC)CC)cc4)nc32)CC1` [Compound 64, 4-{5-[4-(2-Diethylamino-ethylcarbamoyl)-phenylamino]-[1,2,3]triazolo[4,5-d]pyrimidin-3-yl}-piperidine-1-carboxylic acid ethyl ester], for which the inhibition at 10 µM in experiment [1] turned out to be 29.1%. Also, the inhibition at 20 µM in experiment [2] was found to be 33.9%.
With `CN(C)CC(O)COc1ccc(Nc2ncc3nnn(-c4ccc5c(c4)Cc4ccccc4-5)c3n2)cc1` (centres unmarked) [Compound 17, 1-Dimethylamino-3-{4-[3-(9H-fluoren-2-yl)-3H-[1,2,3]triazolo[4,5-d]pyrimidin-5-ylamino]-phenoxy}-propan-2-ol], the inhibition at 10 µM in experiment [1] stood at 86.8%. For the same molecule, the inhibition at 20 µM in experiment [2] turned out to be 53.8%.
As for `c1cc(-c2csnn2)ccc1Nc1ncc2nnn(-c3ccc4c(c3)CCC4)c2n1` [Compound 29, (3-Indan-5-yl-3H-[1,2,3]triazolo[4,5-d]pyrimidin-5-yl)-(4-[1,2,3]thiadiazol-4-yl-phenyl)-amine], the inhibition at 10 µM in experiment [1] worked out at 11%. Moreover, the inhibition at 20 µM in experiment [2] was determined as 16.3%.
For the molecule `CN(C)c1ccc(/C=C/c2ccc(Nc3ncc4nnn(-c5ccc6c(c5)CCC6)c4n3)cc2)cc1` [Compound 7, {4-[2-(4-Dimethylamino-phenyl)-vinyl]-phenyl}-(3-indan-5-yl-3H-[1,2,3]triazolo[4,5-d]pyrimidin-5-yl)-amine], the inhibition at 10 µM in experiment [1] was -5%. For the same molecule, the inhibition at 20 µM in experiment [2] was found to be 38.7%.
For `OCCCOc1ccc(Nc2ncc3nnn(-c4ccc5c(c4)CCC5)c3n2)cc1` [Compound 82, 3-[4-(3-Indan-5-yl-3H-[1,2,3]triazolo[4,5-d]pyrimidin-5-ylamino)-phenoxy]-propan-1-ol], the inhibition at 10 µM in experiment [1] amounted to 13.5%. Further, the inhibition at 20 µM in experiment [2] is 5.06%.
With `O=C(NCCN1CCOCC1)c1cccc(Nc2ncc3nnn(-c4ccc5c(c4)CCC5)c3n2)c1` [Compound 73, 3-(3-Indan-5-yl-3H-[1,2,3]triazolo[4,5-d]pyrimidin-5-ylamino)-N-(2-morpholin-4-yl-ethyl)-benzamide], in experiment [1], the inhibition at 10 µM stood at 31.2%. Besides, in experiment [2], the inhibition at 20 µM was 47.5%.
`CCN(CC)CCNC(=O)c1ccc(Nc2ncc3nnn(Cc4nc5ccccc5[nH]4)c3n2)cc1` [Compound 71, 4-[3-(1H-Benzoimidazol-2-ylmethyl)-3H-[1,2,3]triazolo[4,5-d]pyrimidin-5-ylamino]-N-(2-diethylamino-ethyl)-benzamide]: in experiment [1], the inhibition at 10 µM was found to be 27.5%. Further, in experiment [2], the inhibition at 20 µM was determined as 52.8%.
The matching figures for `CCN(CC)CCNC(=O)c1ccc(Nc2ncc3nnn(-c4cccc(-c5nnn[nH]5)c4)c3n2)cc1` [Compound 62, N-(2-Diethylamino-ethyl)-4-{3-[3-(1H-tetrazol-5-yl)-phenyl]-3H-[1,2,3]triazolo[4,5-d]pyrimidin-5-ylamino}-benzamide]: 66.7% and 45.3%.
As for `CN(CCO)CCCOc1ccc(Nc2ncc3nnn(-c4ccc5c(c4)CCC5)c3n2)cc1` [Compound 88, 2-({3-[4-(3-Indan-5-yl-3H-[1,2,3]triazolo[4,5-d]pyrimidin-5-ylamino)-phenoxy]-propyl}-methyl-amino)-ethanol], the inhibition at 10 µM in experiment [1] was 92.3%. The inhibition at 20 µM in experiment [2] is 103%.
On to `CCCCNS(=O)(=O)c1cccc(Nc2ncc3nnn(Cc4ccccc4)c3n2)c1` [Compound 57], for which the inhibition at 10 µM in experiment [1] turned out to be 22%. For the same molecule, the inhibition at 20 µM in experiment [2] was 34.1%.
Turning to `CCCCNS(=O)(=O)c1cccc(-n2nnc3cnc(Nc4ccc(C(=O)NCCN(CC)CC)cc4)nc32)c1` [Compound 49], the inhibition at 10 µM in experiment [1] amounted to 99.5%. Besides, in experiment [2], the inhibition at 20 µM amounted to 44.6%.
On to `c1ccc(-c2cccc(Nc3ncc4nnn(-c5ccc(-c6csnn6)cc5)c4n3)c2)cc1` [Compound 38, Biphenyl-3-yl-[3-(4-[1,2,3]thiadiazol-4-yl-phenyl)-3H-[1,2,3]triazolo[4,5-d]pyrimidin-5-yl]-amine], for which the inhibition at 10 µM in experiment [1] turned out to be 3.4%. The inhibition at 20 µM in experiment [2] is 27.2%.
